Values of other authors as cited in publication PMC9863691, “A Novel Ferroptosis Inhibitor UAMC-3203, a Potential Treatment for Corneal Epithelial Wound” (Pharmaceutics, 2022).

Key:
[1] = human, microsomes; cited from earlier work
ferroptosis = system: ferroptosis; set-up: method as in PMID 30354101; settings: read-out: in vitro potency IC50 (ferroptosis); cited from earlier work
[2] = system: human corneal epithelial cell line; set-up: method as in PMID 34535730; settings: after exposure to cigarette smoke and heated tobacco products; cited from earlier work

## CCOC(=O)c1ccc(NC2CCCCC2)c(N)c1 [Fer-1, Ferrostatin-1, reference compound]
[1]
  t1/2 in human microsome: 6 min
ferroptosis
  IC50: 33 nM
[2]
  effect on cell death and cell viability: reduced cell death and improved cell viability
